Reference: the kinase profiling compilation of Christmann-Franck et al. (2016)

How the values were obtained:
Experiment in all cases: radiometric filter-binding kinase assay, Kinase HotSpot
Settings in all cases: compound 0.5 µM; ATP 10 µM
ERBB4 (human) = ERBB4 (human) (UniProt Q15303)
VRK1 (human) = VRK1 (human) (UniProt Q99986)
LRRK2 (human) = LRRK2 (human) (UniProt Q5S007)
PRKD2 (human) = PRKD2 (human) (UniProt Q9BZL6)
PTK6 (human) = PTK6 (human) (UniProt Q13882)
NEK4 (human) = NEK4 (human) (UniProt P51957)
PRKX (human) = PRKX (human) (UniProt P51817)
MAPK1 (human) = MAPK1 (human) (UniProt P28482)
PLK2 (human) = PLK2 (human) (UniProt Q9NYY3)
CLK2 (human) = CLK2 (human) (UniProt P49760)
MAP3K7 TAB1 (human) = MAP3K7 TAB1 (human) (UniProt O43318+Q15750)
TTK (human) = TTK (human) (UniProt P33981)
MARK3 (human) = MARK3 (human) (UniProt P27448)
CSNK1G1 (human) = CSNK1G1 (human) (UniProt Q9HCP0)
MAP2K1 (human) = MAP2K1 (human) (UniProt Q02750)
PAK3 (human) = PAK3 (human) (UniProt O75914)
DYRK4 (human) = DYRK4 (human) (UniProt Q9NR20)
ALK (human) = ALK (human) (UniProt Q9UM73)
RPS6KA4 KD2 (human) = RPS6KA4 KD2 (human) (UniProt O75676)
JAK2 JH1 JH2 (human) = JAK2 JH1 JH2 (human) (UniProt O60674)
CLK3 (human) = CLK3 (human) (UniProt P49761)
MAP3K11 (human) = MAP3K11 (human) (UniProt Q16584)
HIPK1 (human) = HIPK1 (human) (UniProt Q86Z02)
JAK3 JH1 JH2 (human) = JAK3 JH1 JH2 (human) (UniProt P52333)
NTRK2 (human) = NTRK2 (human) (UniProt Q16620)
PAK2 (human) = PAK2 (human) (UniProt Q13177)
CDK4 CCND1 (human) = CDK4 CCND1 (human) (UniProt P24385+P11802)
TAOK2 (human) = TAOK2 (human) (UniProt Q9UL54)
MKNK2 (human) = MKNK2 (human) (UniProt Q9HBH9)
ERBB2 (human) = ERBB2 (human) (UniProt P04626)
PDPK1 (human) = PDPK1 (human) (UniProt O15530)
MLTK (human) = MLTK (human) (UniProt Q9NYL2)
IRAK1 (human) = IRAK1 (human) (UniProt P51617)
STK39 (human) = STK39 (human) (UniProt Q9UEW8)
TBK1 (human) = TBK1 (human) (UniProt Q9UHD2)
EPHB2 (human) = EPHB2 (human) (UniProt P29323)
TXK (human) = TXK (human) (UniProt P42681)
CHUK (human) = CHUK (human) (UniProt O15111)
SRPK1 (human) = SRPK1 (human) (UniProt Q96SB4)
CAMK1 (human) = CAMK1 (human) (UniProt Q14012)
DYRK1A (human) = DYRK1A (human) (UniProt Q13627)
CLK1 (human) = CLK1 (human) (UniProt P49759)

Sequence of MAP2K1 (human) (Q02750 whole entry, looked up): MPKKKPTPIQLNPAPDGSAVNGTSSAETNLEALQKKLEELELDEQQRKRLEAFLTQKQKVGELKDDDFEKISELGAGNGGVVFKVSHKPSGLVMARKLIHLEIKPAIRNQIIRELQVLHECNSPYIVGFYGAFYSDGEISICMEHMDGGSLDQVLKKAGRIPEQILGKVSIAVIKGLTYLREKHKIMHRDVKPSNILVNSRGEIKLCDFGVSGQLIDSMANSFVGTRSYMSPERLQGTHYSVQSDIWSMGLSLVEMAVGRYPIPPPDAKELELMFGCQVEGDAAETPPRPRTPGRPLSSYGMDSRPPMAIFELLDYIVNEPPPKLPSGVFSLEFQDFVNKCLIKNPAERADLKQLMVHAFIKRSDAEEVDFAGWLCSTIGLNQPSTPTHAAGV
Sequence of PTK6 (human) (Q13882 whole entry, looked up): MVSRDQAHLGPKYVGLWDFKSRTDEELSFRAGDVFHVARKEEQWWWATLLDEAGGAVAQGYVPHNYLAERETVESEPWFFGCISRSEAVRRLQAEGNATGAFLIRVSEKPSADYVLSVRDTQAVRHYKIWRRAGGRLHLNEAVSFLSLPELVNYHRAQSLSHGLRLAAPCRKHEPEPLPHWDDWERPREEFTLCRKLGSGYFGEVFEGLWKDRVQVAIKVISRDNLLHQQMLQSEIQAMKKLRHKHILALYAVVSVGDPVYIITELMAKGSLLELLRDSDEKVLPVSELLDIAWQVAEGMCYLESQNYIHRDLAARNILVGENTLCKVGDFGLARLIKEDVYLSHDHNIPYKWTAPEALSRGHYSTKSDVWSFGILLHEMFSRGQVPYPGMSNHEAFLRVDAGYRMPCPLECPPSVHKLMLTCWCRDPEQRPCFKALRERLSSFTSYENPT
Sequence of ERBB2 (human) (P04626 whole entry, looked up): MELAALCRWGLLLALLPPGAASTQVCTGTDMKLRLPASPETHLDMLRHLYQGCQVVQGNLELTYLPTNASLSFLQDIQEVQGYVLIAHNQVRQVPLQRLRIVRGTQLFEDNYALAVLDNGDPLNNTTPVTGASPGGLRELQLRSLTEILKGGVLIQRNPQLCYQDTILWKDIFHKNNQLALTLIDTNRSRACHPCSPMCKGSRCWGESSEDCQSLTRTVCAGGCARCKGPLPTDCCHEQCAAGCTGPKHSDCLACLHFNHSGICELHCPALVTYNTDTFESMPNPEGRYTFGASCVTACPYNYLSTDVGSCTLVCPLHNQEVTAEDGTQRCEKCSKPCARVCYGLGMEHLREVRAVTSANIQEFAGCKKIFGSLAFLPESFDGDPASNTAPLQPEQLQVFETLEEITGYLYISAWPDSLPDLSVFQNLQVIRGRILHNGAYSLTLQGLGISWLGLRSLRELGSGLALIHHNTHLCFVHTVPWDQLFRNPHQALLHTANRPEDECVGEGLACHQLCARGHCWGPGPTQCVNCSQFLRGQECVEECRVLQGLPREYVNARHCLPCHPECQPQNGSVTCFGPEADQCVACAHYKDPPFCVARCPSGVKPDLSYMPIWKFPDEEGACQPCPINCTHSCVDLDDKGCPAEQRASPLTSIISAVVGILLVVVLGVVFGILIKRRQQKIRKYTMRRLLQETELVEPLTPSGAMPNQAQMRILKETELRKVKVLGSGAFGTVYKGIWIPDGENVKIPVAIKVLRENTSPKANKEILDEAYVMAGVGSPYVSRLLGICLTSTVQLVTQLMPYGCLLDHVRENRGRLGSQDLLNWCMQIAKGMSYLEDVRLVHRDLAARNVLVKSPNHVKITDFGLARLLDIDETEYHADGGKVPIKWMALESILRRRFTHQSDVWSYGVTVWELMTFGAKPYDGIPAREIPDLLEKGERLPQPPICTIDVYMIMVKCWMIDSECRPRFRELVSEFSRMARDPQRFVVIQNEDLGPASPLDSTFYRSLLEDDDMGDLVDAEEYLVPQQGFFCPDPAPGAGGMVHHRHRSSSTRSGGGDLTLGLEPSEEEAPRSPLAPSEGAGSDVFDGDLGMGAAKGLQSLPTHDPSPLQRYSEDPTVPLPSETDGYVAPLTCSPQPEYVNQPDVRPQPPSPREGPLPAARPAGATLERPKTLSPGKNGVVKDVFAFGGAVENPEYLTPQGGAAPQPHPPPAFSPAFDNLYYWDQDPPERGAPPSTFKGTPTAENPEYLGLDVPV
Sequence of CLK3 (human) (P49761 whole entry, looked up): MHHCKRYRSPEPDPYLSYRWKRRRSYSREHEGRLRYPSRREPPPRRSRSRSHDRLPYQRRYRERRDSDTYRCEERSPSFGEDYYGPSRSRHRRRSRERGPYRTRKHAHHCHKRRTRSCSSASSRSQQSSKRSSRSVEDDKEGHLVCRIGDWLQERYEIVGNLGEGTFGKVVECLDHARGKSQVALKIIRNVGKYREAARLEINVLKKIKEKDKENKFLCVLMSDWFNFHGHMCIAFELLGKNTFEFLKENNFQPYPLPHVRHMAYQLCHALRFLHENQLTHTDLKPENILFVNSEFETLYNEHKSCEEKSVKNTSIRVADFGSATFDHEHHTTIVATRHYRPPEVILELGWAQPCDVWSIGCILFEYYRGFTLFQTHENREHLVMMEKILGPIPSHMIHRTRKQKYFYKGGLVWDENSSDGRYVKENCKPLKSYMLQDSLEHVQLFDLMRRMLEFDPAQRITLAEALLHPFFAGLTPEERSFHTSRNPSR
Sequence of PLK2 (human) (Q9NYY3 whole entry, looked up): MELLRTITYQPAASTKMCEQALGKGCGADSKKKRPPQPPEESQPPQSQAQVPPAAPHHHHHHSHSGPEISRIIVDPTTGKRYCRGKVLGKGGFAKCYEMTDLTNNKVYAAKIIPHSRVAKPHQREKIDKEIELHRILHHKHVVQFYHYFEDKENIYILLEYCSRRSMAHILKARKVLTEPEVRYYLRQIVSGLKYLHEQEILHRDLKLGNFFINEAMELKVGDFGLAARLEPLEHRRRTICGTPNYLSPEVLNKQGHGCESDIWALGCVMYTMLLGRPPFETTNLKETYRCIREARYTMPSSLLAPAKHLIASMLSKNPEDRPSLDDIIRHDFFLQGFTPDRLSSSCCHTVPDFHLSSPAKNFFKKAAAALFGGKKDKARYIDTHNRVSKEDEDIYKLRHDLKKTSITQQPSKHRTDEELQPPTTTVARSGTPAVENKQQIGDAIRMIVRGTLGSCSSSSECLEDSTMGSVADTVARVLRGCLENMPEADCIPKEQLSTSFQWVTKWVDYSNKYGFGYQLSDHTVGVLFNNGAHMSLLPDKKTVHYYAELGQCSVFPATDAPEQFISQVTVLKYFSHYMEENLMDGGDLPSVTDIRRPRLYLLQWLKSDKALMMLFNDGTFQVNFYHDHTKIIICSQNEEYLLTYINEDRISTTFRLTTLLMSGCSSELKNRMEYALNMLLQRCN
Sequence of MLTK (human) (Q9NYL2 whole entry, looked up): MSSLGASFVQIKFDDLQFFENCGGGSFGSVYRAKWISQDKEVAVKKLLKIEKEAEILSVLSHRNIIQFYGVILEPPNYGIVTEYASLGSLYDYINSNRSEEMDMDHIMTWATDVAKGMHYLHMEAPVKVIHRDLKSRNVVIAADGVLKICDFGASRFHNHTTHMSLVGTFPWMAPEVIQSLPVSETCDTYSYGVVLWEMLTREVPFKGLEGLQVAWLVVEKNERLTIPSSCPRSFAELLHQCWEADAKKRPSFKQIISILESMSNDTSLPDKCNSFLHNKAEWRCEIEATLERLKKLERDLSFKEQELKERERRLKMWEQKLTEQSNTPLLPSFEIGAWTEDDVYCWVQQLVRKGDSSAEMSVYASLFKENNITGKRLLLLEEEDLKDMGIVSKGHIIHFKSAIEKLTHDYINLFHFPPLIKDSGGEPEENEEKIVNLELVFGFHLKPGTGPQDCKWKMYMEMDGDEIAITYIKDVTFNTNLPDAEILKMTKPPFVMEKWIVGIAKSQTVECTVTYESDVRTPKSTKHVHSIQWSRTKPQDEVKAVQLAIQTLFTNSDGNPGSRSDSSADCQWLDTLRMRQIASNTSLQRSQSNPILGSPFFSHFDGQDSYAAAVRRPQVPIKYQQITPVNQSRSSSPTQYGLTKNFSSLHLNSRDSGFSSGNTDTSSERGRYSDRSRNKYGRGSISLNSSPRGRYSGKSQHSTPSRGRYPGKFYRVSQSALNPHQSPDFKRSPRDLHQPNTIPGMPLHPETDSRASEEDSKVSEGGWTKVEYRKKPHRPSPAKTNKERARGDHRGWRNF
Sequence of SRPK1 (human) (Q96SB4 whole entry, looked up): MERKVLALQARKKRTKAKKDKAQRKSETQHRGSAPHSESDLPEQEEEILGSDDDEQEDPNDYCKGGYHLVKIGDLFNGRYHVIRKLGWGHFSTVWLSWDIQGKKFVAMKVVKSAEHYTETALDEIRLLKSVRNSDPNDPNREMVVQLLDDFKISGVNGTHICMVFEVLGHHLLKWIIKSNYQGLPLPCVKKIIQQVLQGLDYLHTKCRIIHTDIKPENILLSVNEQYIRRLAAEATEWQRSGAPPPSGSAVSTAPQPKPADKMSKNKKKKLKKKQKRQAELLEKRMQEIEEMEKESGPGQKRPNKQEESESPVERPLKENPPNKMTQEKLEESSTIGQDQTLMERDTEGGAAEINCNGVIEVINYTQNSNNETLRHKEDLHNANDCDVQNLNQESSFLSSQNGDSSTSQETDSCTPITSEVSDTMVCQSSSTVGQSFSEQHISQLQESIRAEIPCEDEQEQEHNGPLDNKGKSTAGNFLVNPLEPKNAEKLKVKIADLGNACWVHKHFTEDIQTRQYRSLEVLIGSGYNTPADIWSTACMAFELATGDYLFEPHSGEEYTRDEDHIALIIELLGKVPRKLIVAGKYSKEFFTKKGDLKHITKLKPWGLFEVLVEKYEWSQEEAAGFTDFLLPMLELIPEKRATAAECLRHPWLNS

## Cc1[nH]c(/C=C2\C(=O)Nc3ccc(S(=O)(=O)N(C)c4cccc(Cl)c4)cc32)c(C)c1C(=O)N1CCN(C)CC1
ERBB4 (human)
  residual activity: 105%
VRK1 (human)
  residual activity: 87.3%
LRRK2 (human)
  residual activity: 6.63%
PRKD2 (human)
  residual activity: 58.3%
PTK6 (human)
  residual activity: 91.3%
NEK4 (human)
  residual activity: 79.7%
PRKX (human)
  residual activity: 104%
MAPK1 (human)
  residual activity: 85.1%
PLK2 (human)
  residual activity: 96.4%
CLK2 (human)
  residual activity: 5.1%
MAP3K7 TAB1 (human)
  residual activity: 79.8%
TTK (human)
  residual activity: 90.7%
MARK3 (human)
  residual activity: 41.9%
CSNK1G1 (human)
  residual activity: 104%
MAP2K1 (human)
  residual activity: 89.3%
PAK3 (human)
  residual activity: 93.5%
DYRK4 (human)
  residual activity: 96.1%
ALK (human)
  residual activity: 77.7%
RPS6KA4 KD2 (human)
  residual activity: 109%
JAK2 JH1 JH2 (human)
  residual activity: 40.6%
CLK3 (human)
  residual activity: 71.1%
MAP3K11 (human)
  residual activity: 79.1%
HIPK1 (human)
  residual activity: 104%
JAK3 JH1 JH2 (human)
  residual activity: 47%
NTRK2 (human)
  residual activity: 35.7%
PAK2 (human)
  residual activity: 96.2%
CDK4 CCND1 (human)
  residual activity: 88.5%
TAOK2 (human)
  residual activity: 21.9%
MKNK2 (human)
  residual activity: 106%
ERBB2 (human)
  residual activity: 91.5%
PDPK1 (human)
  residual activity: 114%
MLTK (human)
  residual activity: 97.4%
IRAK1 (human)
  residual activity: 57.7%
STK39 (human)
  residual activity: 84.7%
TBK1 (human)
  residual activity: 60.4%
EPHB2 (human)
  residual activity: 91.8%
TXK (human)
  residual activity: 102%
CHUK (human)
  residual activity: 100%
SRPK1 (human)
  residual activity: 77.3%
CAMK1 (human)
  residual activity: 95.8%
DYRK1A (human)
  residual activity: 94.1%

## O=S(=O)(c1cccc2cnccc12)N1CCCNCC1
ERBB4 (human)
  residual activity: 101%
VRK1 (human)
  residual activity: 87.6%
LRRK2 (human)
  residual activity: 94.2%
CLK1 (human)
  residual activity: 96.3%
PRKD2 (human)
  residual activity: 85%
PTK6 (human)
  residual activity: 96.1%
NEK4 (human)
  residual activity: 90.7%
PRKX (human)
  residual activity: 23.5%
MAPK1 (human)
  residual activity: 98.1%
PLK2 (human)
  residual activity: 100%
CLK2 (human)
  residual activity: 95.1%
MAP3K7 TAB1 (human)
  residual activity: 106%
TTK (human)
  residual activity: 99.1%
CSNK1G1 (human)
  residual activity: 89.6%
MAP2K1 (human)
  residual activity: 83%
PAK3 (human)
  residual activity: 103%
DYRK4 (human)
  residual activity: 97.9%
ALK (human)
  residual activity: 119%
RPS6KA4 KD2 (human)
  residual activity: 81.8%
JAK2 JH1 JH2 (human)
  residual activity: 107%
CLK3 (human)
  residual activity: 83.7%
MAP3K11 (human)
  residual activity: 99.7%
HIPK1 (human)
  residual activity: 96.8%
JAK3 JH1 JH2 (human)
  residual activity: 120%
NTRK2 (human)
  residual activity: 102%
CDK4 CCND1 (human)
  residual activity: 92.2%
TAOK2 (human)
  residual activity: 87.3%
MKNK2 (human)
  residual activity: 72%
ERBB2 (human)
  residual activity: 108%
PDPK1 (human)
  residual activity: 91.3%
MLTK (human)
  residual activity: 101%
IRAK1 (human)
  residual activity: 86.2%
STK39 (human)
  residual activity: 103%
EPHB2 (human)
  residual activity: 83.2%
TXK (human)
  residual activity: 84.1%
SRPK1 (human)
  residual activity: 92.6%
CAMK1 (human)
  residual activity: 99.4%
DYRK1A (human)
  residual activity: 99.4%

## N#C/C(=C(/N)Sc1ccc(N)cc1)c1ccccc1C(F)(F)F
ERBB4 (human)
  residual activity: 89.9%
VRK1 (human)
  residual activity: 100%
LRRK2 (human)
  residual activity: 100%
PRKD2 (human)
  residual activity: 93.4%
PTK6 (human)
  residual activity: 97.6%
NEK4 (human)
  residual activity: 95.9%
PRKX (human)
  residual activity: 98.9%
MAPK1 (human)
  residual activity: 86%
PLK2 (human)
  residual activity: 98.1%
CLK2 (human)
  residual activity: 100%
MAP3K7 TAB1 (human)
  residual activity: 93.5%
TTK (human)
  residual activity: 93.6%
MARK3 (human)
  residual activity: 107%
CSNK1G1 (human)
  residual activity: 89%
MAP2K1 (human)
  residual activity: 97.9%
PAK3 (human)
  residual activity: 99.2%
DYRK4 (human)
  residual activity: 92.4%
ALK (human)
  residual activity: 100%
RPS6KA4 KD2 (human)
  residual activity: 112%
JAK2 JH1 JH2 (human)
  residual activity: 98.7%
CLK3 (human)
  residual activity: 103%
MAP3K11 (human)
  residual activity: 99.9%
HIPK1 (human)
  residual activity: 107%
JAK3 JH1 JH2 (human)
  residual activity: 101%
NTRK2 (human)
  residual activity: 103%
PAK2 (human)
  residual activity: 98%
CDK4 CCND1 (human)
  residual activity: 106%
TAOK2 (human)
  residual activity: 101%
MKNK2 (human)
  residual activity: 109%
ERBB2 (human)
  residual activity: 93%
PDPK1 (human)
  residual activity: 103%
MLTK (human)
  residual activity: 105%
IRAK1 (human)
  residual activity: 100%
STK39 (human)
  residual activity: 94.6%
TBK1 (human)
  residual activity: 98.1%
EPHB2 (human)
  residual activity: 101%
TXK (human)
  residual activity: 98.7%
CHUK (human)
  residual activity: 102%
SRPK1 (human)
  residual activity: 96.5%
CAMK1 (human)
  residual activity: 91.6%
DYRK1A (human)
  residual activity: 93.9%
